Where two headings read alike, the source gives them in different places. [NapdU] = 5-(N-(1-naphthylmethyl)carboxamide)-2'-deoxyuridine (Nap-dU)
Key:
[1] = molecular target: K-RAS G12D protein (Homo sapiens, UniProt P01116, G12D); assay: ELISA binding affinity (Kd) for 2nd target; conditions: read-out: Biding affinity for 2nd target Kd, ligands with biotin conjugated to the 5′-end
Experimental: The binding affinity of the nucleic acid ligands were measured using enzyme linked immunosorbent assay (ELISA).
The test method was composed of the following steps. • 1) A target protein was coated on a microplate at a low temperature for 16 hours. • 2) The surface of the microplate was blocked by reaction at room temperature for 1 hour using Blocking Buffer (Pierce™ Protein-Free (PBS) Blocking Buffer, Thermo Scientific, USA). • 3) The microplate was treated with a nucleic acid ligand, followed by reaction at 37° C. for 1 hour. • 4) For enzyme conjugation, the microplate was treated with a streptavidin-horseradish peroxidase (HRP) conjugate (Thermo Scientific, USA), followed by reaction at room temperature for 1 hour. • 5) The microplate was treated with TMB substrate solution (Thermo Scientific, USA), followed by reaction at room temperature for 30 minutes. • 6) The microplate was treated with a reaction termination solution (2 M sulfuric acid). • 7) The absorbance was measured at 450 nm using GloMax plate meter (Promega, USA).
The target protein and the nucleic acid ligand were each used at 4-fold dilution starting from 500 nM.

[2] = molecular target: human serum albumin (HSA) (Homo sapiens, UniProt P02768); assay: ELISA binding affinity (Kd) for 1st target
Sequence of human serum albumin (HSA) (P02768 25-609): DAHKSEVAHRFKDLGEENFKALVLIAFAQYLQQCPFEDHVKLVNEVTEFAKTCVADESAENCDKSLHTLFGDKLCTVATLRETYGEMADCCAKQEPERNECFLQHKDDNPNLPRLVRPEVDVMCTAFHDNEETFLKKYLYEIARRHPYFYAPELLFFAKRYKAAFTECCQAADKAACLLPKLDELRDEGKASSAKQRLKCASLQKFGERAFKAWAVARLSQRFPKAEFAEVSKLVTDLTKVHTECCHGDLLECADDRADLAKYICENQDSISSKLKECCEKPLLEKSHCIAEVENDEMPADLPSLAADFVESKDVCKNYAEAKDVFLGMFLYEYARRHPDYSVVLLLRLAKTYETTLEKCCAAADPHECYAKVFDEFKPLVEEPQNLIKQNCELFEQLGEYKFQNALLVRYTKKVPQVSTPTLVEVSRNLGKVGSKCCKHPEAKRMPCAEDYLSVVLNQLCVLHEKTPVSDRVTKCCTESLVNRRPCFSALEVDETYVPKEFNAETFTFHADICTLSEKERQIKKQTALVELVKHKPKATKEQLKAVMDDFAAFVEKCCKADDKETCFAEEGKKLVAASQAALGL

[3] = Serum half-life in human serum (urea-PAGE band intensity); type: in vitro ADME; conditions: 96% human serum, 37° C.; ligands with biotin conjugated to the 5′-end
Experimental: The stabilized nucleic acid ligand was added to the 96% human serum and then reacted at 37° C. for 0, 3, 6, 9, 12, 15, and 18 hours, thereby inducing the degradation of the nucleic acid ligand. After each of the reaction times, the nuclease was inactivated by heating at 85° C., and electrophoresis was performed on a 10% urea-polyacrylamide gel. A control without the addition of human serum was included as a loading control, and the band intensities of the control and the test groups were measured. The intensity trend line over time was determined using the measurement values, and the intensity value was inserted into the trend equation to obtain the half-life.

AD004: truncated nucleic acid ligand GCCTGGAC6AGCA6AAG6CCGGA6GGCAGC666A6GCCGACCA6CAGCC, 6 = Nap-dU (DNA GCCTGGACUAGCAUAAGUCCGGAUGGCAGCUUUAUGCCGACCAUCAGCC; aptamer; DNA, [NapdU] at 9, 14, 18, 24, 31, 32, 33, 35, 44, backbone and methylation of C not given here)
Kd [1]: 16.6 nM | Kd [2]: 190 nM

AD005: truncated nucleic acid ligand GAC6AGCA6AAG6CCGGA6GGCAGC666A6GCCGACCA6, 6 = Nap-dU (DNA GACNAGCANAAGNCCGGANGGCAGCNNNANGCCGACCAN; Nap-dU modified bases; modified_base 4 OTHER; 5-(N-(1-naphthylmethyl)carboxamide)-2-deoxyuridine; modified_base 9 OTHER; 5-(N-(1-naphthylmethyl)carboxamide)-2'-deoxyuridine(Nap-dU); modified_base 13 OTHER; modified_base 19 OTHER; modified_base 26..28 OTHER; 5-(N-(1-naphthylmethyl)carboxamide)-2'-deox)
Serum half-life t½ [3]: 30.1 h | Kd [1]: 22.9 nM | Kd ([2]; HSA, ELISA, ligands with biotin conjugated to the 5′-end, read-out: Biding affinity for 1st target Kd): 122 nM

AD006: truncated nucleic acid ligand GAC6AGCA6AAG6CCGGA6GGCAGC666A6GCCG, 6 = Nap-dU (DNA GACUAGCAUAAGUCCGGAUGGCAGCUUUAUGCCG; aptamer; DNA, [NapdU] at 4, 9, 13, 19, 26, 27, 28, 30, backbone and methylation of C not given here)
Kd [1]: 77.6 nM | Kd [2]: 939 nM

AD007: truncated nucleic acid ligand GCA6AAG6CCGGA6GGCAGC666A6GCCGACC, 6 = Nap-dU (DNA GCAUAAGUCCGGAUGGCAGCUUUAUGCCGACC; aptamer; DNA, [NapdU] at 4, 8, 14, 21, 22, 23, 25, backbone and methylation of C not given here)
Kd [1]: 152 nM | Kd [2]: 536 nM

AD008: truncated nucleic acid ligand GCA6AAG6CCGGA6GGCAGC666A6GC, 6 = Nap-dU (DNA GCAUAAGUCCGGAUGGCAGCUUUAUGC; aptamer; DNA, [NapdU] at 4, 8, 14, 21, 22, 23, 25, backbone and methylation of C not given here)
Kd [1]: 287 nM | Kd [2]: 66.9 nM

From US20240336926A1, “PHARMACEUTICAL COMPOSITION FOR TREATING TRIPLE NEGATIVE BREAST CANCER, CONTAINING NON-NATURAL NUCLEIC ACID LIGAND AS ACTIVE INGREDIENT” (INTEROLIGO CORPORATION, priority 2021, published 2024)
